Assay results taken from publication PMC11259170, “Small-molecule probe for IBD risk variant GPR65 I231L alters cytokine signaling networks through positive allosteric modulation” (Science Advances, 2024).
Like-named read-outs stand apart in the source and are kept apart here.

Assays:
[1] = biological target: T1, hGPR65 (Homo sapiens, UniProt Q8IYL9); assay: cAMP detection in HeLa expression cell line, hGPR65; assay type: cell-based; conditions: for Emax: HeLa, read-out: hGPR Max Activity %; for cAMP production relative to BRD2813, hGPR65: pH 7.2
T1 construct: expressed in transfected cells; host or cells: HeLa (ATCC CCL-2), lentiviral transduction, pLX317
Procedure, shortened: (§1)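 HeLa cells stably expressing C-terminally V5-tagged receptor or GFP (lentiviral, puromycin 3 μg/ml) stimulated at 1500 cells per well for 30 min at RT with compound (10 mM DMSO stock) in stimulation buffer at pH 7.2. cAMP detected by Lance Ultra TR-FRET after lysis and 1 h detection, excitation 337 nm, emission 620/665 nm.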

[2] = biological target: T2, mGPR65 (Mus musculus, UniProt Q61038); assay: cAMP detection in HeLa expression cell line, mGPR65; assay type: cell-based; conditions: for Emax: HeLa, read-out: mGPR Max Activity %; for cAMP production relative to BRD2813, mGPR65: pH 7.2
T2 construct: expressed in transfected cells; host or cells: HeLa (ATCC CCL-2), lentiviral transduction, pLX317
Procedure, shortened: as §1

[3] = test system: GFP-expressing HeLa cells; assay: cAMP detection in HeLa expression cell line, GFP control; assay type: cell-based, human; conditions: Homo sapiens, HeLa; for Emax: relative to 100uM forskolin (100%) and DMSO (0%), read-out: GFP Max Activity %
Method: HeLa stable expression cell lines were produced by lentiviral transduction. Briefly, lentiviral plasmids for each GPCR with a C-terminal V5 Tag ([…]) were made in a pLX317 backbone using competent Escherichia coli (New England Biolabs, C3050H). Lenti-X 293 T (Takara, 632810) cells were transfected with the lentiviral plasmids to produce virus. Low-passage HeLa cells (American Type Culture Collection, CCL-2) were then transduced with lentivirus. After 48 hours, HeLa cells were cultured under selection with puromycin (3 μg/ml) and allowed to recover and expand before storing stocks in liquid nitrogen.
cAMP was measured in cells using the Lance Ultra cAMP Kit. HeLa cells were cultured under puromycin (3 μg/ml) selection. One day before the experiment, cells were seeded in T75 flasks and allowed to adhere overnight. On the day of the experiment, cells were washed twice with Dulbecco’s PBS and lifted using prewarmed 1× versene solution (Gibco, 15040066). Cells were counted in HBSS (Gibco, 14025092) and then resuspended in stimulation buffer prepared according to the manufacturer’s instructions and adjusted to pH 7.2 using 1 M sodium hydroxide. Cells were added to the plate at a density of 1500 cells per well in white opaque 384-well assay ready microplates containing 100 nl of 10 mM compound in DMSO. Cells were stimulated for 30 min at RT, then lysed and incubated with detection reagents for 1 hour in the dark at RT. Plates were read on BMG Labtech PHERAstar FSX (excitation, 337 nm; emission, 620 and 665 nm). Data analysis was performed using GraphPad Prism.

[4] = 1st hGPR column pair, NA = no activity, read-out: hGPR EC50
[5] = 2nd hGPR column pair, NA = no activity, read-out: hGPR EC50
[6] = 1st hGPR column pair, relative to 100uM forskolin (100%) and DMSO (0%), NA = no activity
[7] = 2nd hGPR column pair, relative to 100uM forskolin (100%) and DMSO (0%), NA = no activity
[8] = 1st mGPR column pair, NA = no activity, read-out: mGPR EC50
[9] = 2nd mGPR column pair, NA = no activity, read-out: mGPR EC50
[10] = 2nd mGPR column pair, relative to 100uM forskolin (100%) and DMSO (0%), NA = no activity
[11] = relative to 100uM forskolin (100%) and DMSO (0%), NA = no activity
[12] = 1st GFP column pair, NA = no activity
[13] = 2nd GFP column pair, NA = no activity
[14] = mGPR EC50 (uM), NA = no activity
[15] = second pair, relative to 100uM forskolin (100%) and DMSO (0%)

T2 sequence (Q61038 whole entry): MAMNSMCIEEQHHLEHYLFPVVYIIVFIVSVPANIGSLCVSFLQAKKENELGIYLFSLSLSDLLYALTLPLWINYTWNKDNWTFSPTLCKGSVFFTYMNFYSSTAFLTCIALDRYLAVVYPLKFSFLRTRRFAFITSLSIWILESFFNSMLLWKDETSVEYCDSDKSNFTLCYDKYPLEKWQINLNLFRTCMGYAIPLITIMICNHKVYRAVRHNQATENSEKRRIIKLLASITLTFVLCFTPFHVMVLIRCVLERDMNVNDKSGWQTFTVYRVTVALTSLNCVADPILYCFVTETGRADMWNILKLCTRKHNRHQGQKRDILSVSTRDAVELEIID
T1 sequence (Q8IYL9 whole entry): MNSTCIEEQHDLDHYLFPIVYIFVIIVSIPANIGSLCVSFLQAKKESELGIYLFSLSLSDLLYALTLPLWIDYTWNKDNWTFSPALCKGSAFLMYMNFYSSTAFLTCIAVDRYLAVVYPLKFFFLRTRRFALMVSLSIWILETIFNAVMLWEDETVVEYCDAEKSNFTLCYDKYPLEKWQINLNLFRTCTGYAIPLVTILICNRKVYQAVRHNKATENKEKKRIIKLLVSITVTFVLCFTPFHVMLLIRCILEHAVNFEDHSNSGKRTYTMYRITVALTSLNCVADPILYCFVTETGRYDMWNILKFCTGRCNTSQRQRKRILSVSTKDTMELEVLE

| SMILES | EC50 [1, 4] [µM] | EC50 [1, 5] [µM] | Emax [1, 6] [%] | Emax [1, 7] [%] | EC50 [2, 8] [µM] | EC50 [2, 9] [µM] | Emax [2, 10] [%] | Emax [2, 11] [%] | EC50 [3, 12] [µM] | Emax [3, 12] [%] | EC50 [3, 13] [µM] | Emax [3, 13] [%] | other results |
| --- | --- | --- | --- | --- | --- | --- | --- | --- | --- | --- | --- | --- | --- |
| Cc1ccc(NC(=O)c2cnn3c(O)cc(-c4ccc(COC(C)C)cc4)nc23)cn1 [BRD5071] | 0.991 | 1.89 | 74.2 | 60.4 | 1.54 | 1.61 | 61.2 | 60.5 | 24.9 | 8.1 |  |  |  |
| Cc1ncc(NC(=O)c2cnn3c(O)cc(-c4ccc(COC(C)C)cc4)nc23)cn1 [BRD5072] | 8.18 | 6.93 | 59.1 | 48.2 | 4.79 | 5.04 | 49 | 51.1 | 6.88 | 3.5 | 0.376 | 1.42 |  |
| Cc1cnc(NC(=O)c2cnn3c(O)cc(-c4ccc(COC(C)C)cc4)nc23)cn1 [BRD5073] | 2.16 | 3.05 | 73.6 | 65.1 | 2.27 | 2.78 | 59.1 | 71 |  |  | 3.53 | 2.17 |  |
| CC(C)OCc1ccc(-c2cc(O)n3ncc(C(=O)Nc4cccnc4)c3n2)cc1 [BRD5077] | 5.55 | 8.26 | 57.8 | 70.1 | 2.51 | 2.72 | 62.4 | 70 |  |  | 1.62 | 3.65 |  |
| Cc1ccc(NC(=O)c2cnn3c(O)cc(-c4ccc(COC(C)C)cc4)nc23)c(Cl)c1 [BRD5081] | 4.26 | 7.63 | 80.6 | 63.4 | 1.01 | 1.14 | 60.4 | 66.3 | 1.62 | 2.48 |  |  |  |
| Cc1ccc(NC(=O)c2cnn3c(O)cc(-c4ccc(C(N)=O)cc4)nc23)cc1 [BRD5082] |  |  | 0 |  |  |  |  | 4.93 | 38.5 | 14.2 | 17.9 | 7.17 | cAMP production relative to BRD2813, hGPR65 [1]: eliminated all cAMP activity; EC50 [2, 14]: 12.3 µM; cAMP production relative to BRD2813, mGPR65 [2]: eliminated all cAMP activity |
| CNC(=O)c1ccc(-c2cc(O)n3ncc(C(=O)Nc4ccc(C)cc4)c3n2)cc1 [BRD5083] | 26.2 |  | 75.2 |  |  | 99.6 | 106 |  |  |  | 6.27 | 1.9 |  |
| Cc1ccc(NC(=O)c2cnn3c(O)cc(-c4ccc(C(=O)N(C)C)cc4)nc23)cc1 [BRD5084] | 2 | 1.23 | 39.1 | 40.2 | 2.98 | 1.63 | 31.2 | 32.1 | 11.5 | 5.15 | 33.6 | 7.64 |  |
| Cc1ccc(NC(=O)c2cnn3c(O)cc(-c4ccc(C(F)(F)F)cc4)nc23)cc1 [BRD5668] | 0.114 | 0.587 | 77 | 70.8 | 3.49 | 6.28 | -22.2 | -22.7 |  |  | 0.183 | 1.82 |  |
| Cc1ccc(NC(=O)c2cnn3c(O)cc(-c4ccc(C5CCCCC5)cc4)nc23)cc1 [BRD5881] |  |  |  |  |  |  |  |  |  |  |  |  | Emax ([1]; first pair, relative to 100uM forskolin (100%) and DMSO (0%)): 39.5%; Emax [1, 15]: 95.7%; EC50 ([1]; SAR cAMP assay, first EC50/Max pair of hGPR columns, read-out: hGPR EC50): 3.88 µM; EC50 ([1]; SAR cAMP assay, second EC50/Max pair of hGPR columns, read-out: hGPR EC50): 90.6 µM; Emax [2, 15]: 9.83%; EC50 ([2]; SAR cAMP assay, second EC50/Max pair of mGPR columns, read-out: mGPR EC50): 0.579 µM; EC50 ([3]; SAR cAMP assay, second EC50/Max pair of GFP control columns): 0.453 µM; Emax ([3]; second pair): 1.64% |
| COc1cccc(-c2cc(O)n3ncc(C(=O)Nc4ccc(C)cc4)c3n2)c1 [BRD6202] | 1.3 | 1.75 | 72.3 | 73.6 | 0.378 | 0.451 | 58.8 | 63.3 | 3.17 | 1.48 | 0.195 | 3.9 |  |
| CCS(=O)(=O)c1ccc(NC(=O)c2cnn3c(O)cc(-c4ccc(COC)cc4)nc23)cc1 [BRD7157] |  |  |  |  | 10.7 | 14.6 | 19.6 | 64.9 |  |  | 16.7 | 6.57 | EC50 ([1]; NA = no activity, read-out: hGPR EC50): 27.2 µM; hGPR Max Activity [1, 11]: 17.41%; EC50 ([2]; 3rd mGPR column pair, NA = no activity, read-out: mGPR EC50): 4.47 µM; mGPR Max Activity [2, 11]: 44.17% |
| Cc1ccc(NC(=O)c2cnn3c(O)cc(-c4ccc(N5CCN(C)CC5)cc4)nc23)cc1 [BRD7215] |  |  | 48.2 | 57.7 |  |  | 48.7 | 57.8 |  |  | 63.5 | 7.18 | EC50 ([1]; hGPR EC50 (uM), NA = no activity): 2.74 µM; EC50 ([1]; hGPR EC50, NA = no activity): 4.39 µM; cAMP production relative to BRD2813, hGPR65 [1]: decreasing cAMP production; EC50 ([2]; mGPR EC50 (uM), 2nd mGPR column pair, NA = no activity): 1.1 µM; EC50 [2, 14]: 0.161 µM; cAMP production relative to BRD2813, mGPR65 [2]: increasing activity |
